Assay results as given in patent publication US11389435B2, “Compositions and methods for treating epilepsy” (BIOVISTA, INC., priority 2008, dated 2022).
Marks after values point to notes of the source that are not given here.

Assays:
[1] = system: NMDA receptor; conditions: Grigoriev et al. Chim. Pharm. Journal, 1988; cited from earlier work
[2] = at the doses in which it produces its anti-NMDA effect; cited from earlier work
[3] = system: Male Wistar rats; experiment: Chronic anticonvulsant activity using the kainic acid seizure test in rat; assay type: in vivo; conditions: for Wet-shakes Presence: 120 min observation; for Wet-shakes Presence / Rearings Presence / Rearings with Forelimb Clonus Presence: out of 10 animals; for Forelimb Clonus No.: average number of all animals; for Rearings Latency / Rearings with Forelimb Clonus Latency / Wet-shakes Latency: average of all animals
Description: Chronic Anticonvulsant Activity Using the Kainic Acid Seizure Test in Rat. Dimebolins, including the compounds described herein, are shown to be efficacious in the rat kainic acid anticonvulsant activity model. It is appreciated that this model, though general, may also most closely correspond to and/or be more predictive of temporal lobe epilepsy found in humans. However, it is to be understood that this model is a general surrogate for all types of epilepsy.
Male Wistar rats (such as Male Rj: Wistar (Han) rats, weighing 180-280 g at the day of testing, from Elevage Janvier, 53940 Le Genest-Saint-Isle, France) are placed in groups of 4-5 in macrolon cages (41×25×18 cm or 44×28×19 cm) on wood litter (Litalabo—SPPS, 95100 Argenteuil, France), with free access to food and water until tested, and maintained under artificial lighting (12 hours) between 7:00 and 19:00 in a controlled ambient temperature of about 21° C., and relative humidity between 30-80%. Animals are acclimatized to laboratory conditions for least 3 days. Animals surviving the experiments are sacrificed at the end of the experiments by exposure to a mixture of O2/CO2 (20%/80%) followed by CO2.
Dimebon, or an analog or derivative thereof, either alone or in combination with one or more other compounds as described herein, is evaluated at 3 doses (e.g. 1, 3, and 10 mg/kg), administered i.p. once daily for seven days, with a administration volume of 5 mL/kg. The last administration (7th) is injected 30 minutes prior to kainic acid administration, and compared with a vehicle control group. The test article (single compound or combination) is prepared in 0.2% HPMC in physiological saline as follows: The test article is tested for solubility by cold stirring of the highest intended dose for 10 minutes in physiological saline. If soluble, physiological saline serves as vehicle, and doses are prepared W/V (stock) and then V/V (serial dilutions). Preparations may be made freshly for each day of administration and precautions may be taken to preserve the homogeneity of suspensions (if applicable) during the period of administration.
Diazepam (4 mg/kg i.p.) is administered in 0.2% HPMC in physiological saline 30 minutes prior to KA, and is used as reference substance (positive control). Kainic acid (12 mg/kg i.p.) dissolved in physiological saline is administered 30 minutes following the 7th administration of test article, diazepam, or vehicle control. Additional details are described in Ben-Ari et al, Neuroscience, 6, 1361-1391, 1981 for detecting anticonvulsant activity related to a glutamatergic mechanism.
Animals are injected with kainic acid (12 mg/kg i.p.). The occurrences of the following symptoms are noted over a 120 minute period after kainic acid injection: wet-shakes, rearings, and rearings with forelimb clonus. […] In addition, the latencies to the first appearance of the symptoms are measured and the number of forelimb clonus are counted. The number of forelimb clonus episodes per time interval starting from the first occurrence of forelimb clonus will be considered regarding the severity scale. 10 animals are studied per group. The test is performed blind. Quantitative data is analyzed by comparing treated groups with vehicle control using unpaired Student's t tests. Quantal data is analyzed by comparing treated groups with vehicle control using Fisher's Exact Probability tests.

[4] = system: Male Wistar rats; experiment: Acute anticonvulsant activity using the kainic acid seizure test in rat; assay type: in vivo; conditions: single dose 100 mg/kg i.p. 60 minutes prior to kainic acid
Experimental: Male Wistar rats (such as Male Rj: […] Animals are acclimatized to laboratory conditions for least 3 days. […] Additional details are described in Ben-Ari et al, Neuroscience, 6, 1361-1391, 1981 for detecting anticonvulsant activity related to a glutamatergic mechanism. Animals are injected with kainic acid (12 mg/kg i.p.). The occurrences of the following symptoms are noted over a 120 minute period after kainic acid injection: wet-shakes, rearings, and rearings with forelimb clonus. […] In addition, the latencies to the first appearance of the symptoms are measured and the number of forelimb clonus are counted. The number of forelimb clonus episodes per time interval starting from the first occurrence of forelimb clonus will be considered regarding the severity scale. 10 animals are studied per group. The test is performed blind. Quantitative data is analyzed by comparing treated groups with vehicle control using unpaired Student's t tests. Quantal data is analyzed by comparing treated groups with vehicle control using Fisher's Exact Probability tests. Acute Anticonvulsant Activity Using the Kainic Acid Seizure Test in Rat. Dimebon, or an analog or derivative thereof, including the compounds described herein, is shown to be efficacious in the rat kainic acid anticonvulsant activity model. […] The 100 mg/kg formulation is prepared in 0.2% HPMC in physiological saline.

[5] = 1 mg/kg i.p. once daily 7 days, last 30 min before kainic acid
[6] = 1 mg/kg i.p. once daily 7 days, last 30 min before kainic acid 12 mg/kg i.p.
[7] = 3 mg/kg i.p. once daily 7 days, last 30 min before kainic acid
[8] = 3 mg/kg i.p. once daily 7 days, last 30 min before kainic acid 12 mg/kg i.p.
[9] = 10 mg/kg i.p. once daily 7 days, last 30 min before kainic acid
[10] = 10 mg/kg i.p. once daily 7 days, last 30 min before kainic acid 12 mg/kg i.p.
[11] = reference substance 4 mg/kg i.p. 30 minutes prior to kainic acid
[12] = reference substance 4 mg/kg i.p. 30 minutes prior to kainic acid 12 mg/kg i.p.

NC(CCCP(=O)(O)O)C(=O)O (stereo not drawn) [AP5, 2-amino-5-phosphonovaleric acid]
ED50 (anti-NMDA effect) [1]: 190 mg/kg | neurotoxic effects [2]: disturbance of coordination of movement and a sedative effect

Cc1ccc2c(c1)c1c(n2CCc2ccc(C)nc2)CCN(C)C1 [Dimebon, 2,8-dimethyl-5-[2-(6-methyl-3-pyridyl)ethyl]-2,3,4,5-tetrahydro-1H-pyrido[4,3-b]indole]
Forelimb Clonus No., % change from vehicle [3, 5]: −32% | Rearings Latency, % change from vehicle [3, 5]: +24% | Rearings Presence, % change from vehicle [3, 5]: −33% | Rearings with Forelimb Clonus Latency, % change from vehicle [3, 5]: +19% | Rearings with Forelimb Clonus Presence, % change from vehicle [3, 5]: −30% | Wet-shakes Latency, % change from vehicle [3, 5]: +47%^(h) | Wet-shakes Presence, % change from vehicle [3, 5]: −20%^(g) | Wet-shakes Presence [3, 6]: 8 ^NS | Forelimb Clonus No. [3, 6]: 1.9 ^NS | Rearings Latency [3, 6]: 4896 ^NS seconds | Rearings with Forelimb Clonus Latency [3, 6]: 6009 * seconds | Wet-shakes Latency [3, 6]: 3615 ^NS seconds | Rearings Presence [3, 6]: 6 ^NS | Rearings with Forelimb Clonus Presence [3, 6]: 7 ^NS | Forelimb Clonus No., % change from vehicle [3, 7]: −11% | Rearings Latency, % change from vehicle [3, 7]: +4% | Rearings Presence, % change from vehicle [3, 7]: 0% | Rearings with Forelimb Clonus Latency, % change from vehicle [3, 7]: +7% | Rearings with Forelimb Clonus Presence, % change from vehicle [3, 7]: −10% | Wet-shakes Latency, % change from vehicle [3, 7]: +9% | Wet-shakes Presence, % change from vehicle [3, 7]: 0% | Wet-shakes Presence [3, 8]: 10 ^NS | Forelimb Clonus No. [3, 8]: 2.5 ^NS | Rearings Latency [3, 8]: 4134 ^NS seconds | Rearings with Forelimb Clonus Latency [3, 8]: 5366 ^NS seconds | Wet-shakes Latency [3, 8]: 2666 ^NS seconds | Rearings Presence [3, 8]: 9 ^NS | Rearings with Forelimb Clonus Presence [3, 8]: 9 ^NS | Forelimb Clonus No., % change from vehicle [3, 9]: −18% | Rearings Latency, % change from vehicle [3, 9]: +14% | Rearings Presence, % change from vehicle [3, 9]: −11% | Rearings with Forelimb Clonus Latency, % change from vehicle [3, 9]: +7% | Rearings with Forelimb Clonus Presence, % change from vehicle [3, 9]: −10% | Wet-shakes Latency, % change from vehicle [3, 9]: +17% | Wet-shakes Presence, % change from vehicle [3, 9]: 0% | Wet-shakes Presence [3, 10]: 10 ^NS | Forelimb Clonus No. [3, 10]: 2.3 ^NS | Rearings Latency [3, 10]: 4526 ^NS seconds | Rearings with Forelimb Clonus Latency [3, 10]: 5410 ^NS seconds | Wet-shakes Latency [3, 10]: 2865 ^NS seconds | Rearings Presence [3, 10]: 8 ^NS | Rearings with Forelimb Clonus Presence [3, 10]: 9 ^NS | Forelimb Clonus No., % change from vehicle [4]: −54% | Rearings Latency, % change from vehicle [4]: +57% | Rearings Presence, % change from vehicle [4]: −78% | Rearings with Forelimb Clonus Latency, % change from vehicle [4]: −10% | Rearings with Forelimb Clonus Presence, % change from vehicle [4]: −40% | Wet-shakes Latency, % change from vehicle [4]: +79%^(f) | Wet-shakes Presence, % change from vehicle [4]: −50%^(e) | Forelimb Clonus No. ([4]; average number of all animals): 1.3 ^NS | Rearings Latency ([4]; average of all animals): 6197 * seconds | Rearings with Forelimb Clonus Latency ([4]; average of all animals): 4546 ^NS seconds | Wet-shakes Latency ([4]; average of all animals): 4394 ^NS seconds | Rearings Presence ([4]; out of 10 animals): 2 * | Rearings with Forelimb Clonus Presence ([4]; out of 10 animals): 6 ^NS | Wet-shakes Presence ([4]; out of 10 animals): 5 ^NS

CN1C(=O)CN=C(c2ccccc2)c2cc(Cl)ccc21 [Diazepam]
Forelimb Clonus No., % change from vehicle [3, 11]: −79% | Rearings Latency, % change from vehicle [3, 11]: +8% | Rearings Presence, % change from vehicle [3, 11]: 0% | Rearings with Forelimb Clonus Latency, % change from vehicle [3, 11]: +36% | Rearings with Forelimb Clonus Presence, % change from vehicle [3, 11]: −60% | Wet-shakes Latency, % change from vehicle [3, 11]: +53% | Wet-shakes Presence, % change from vehicle [3, 11]: −10% | Wet-shakes Presence [3, 12]: 9 ^NS | Forelimb Clonus No. [3, 12]: 0.6 ** | Rearings Latency [3, 12]: 4282 ^NS seconds | Rearings with Forelimb Clonus Latency [3, 12]: 6841 *** seconds | Wet-shakes Latency [3, 12]: 3753 * seconds | Rearings Presence [3, 12]: 9 ^NS | Rearings with Forelimb Clonus Presence [3, 12]: 4 *^
